Data: article PMC4491177, “Co-translational capturing of nascent ribosomal proteins by their dedicated chaperones” (Nature Communications, 2015)
Ends that are not written are not given here.

Key:
Sqt1-TAP [1] = assay: co-translational capturing of yEGFP fusion by qRT-PCR, Sqt1-TAP purification; format: binding, S. cerevisiae; details: vs yEGFP control mRNA; expressed 10 min from copper-inducible promoter, then cycloheximide
Protocol: Figure 7 Chaperones are recruited to nascent ribosomal proteins. (a) The chaperone proteins were affinity purified (IgG-Sepharose pull-down) from extracts of cycloheximide-treated cells and the associated RNA was isolated from the TEV eluates. Each of the four chaperone purifications (NTAP-Rrb1, Syo1-FTpA, Sqt1-TAP, and Yar1-TAP) was assessed for their content of the four ribosomal protein (RP) mRNAs (RPL3, RPL5, RPL10 and RPS3) by real-time qRT–PCR. The data from one representative experiment are expressed as the relative enrichment of the specifically co-purified RP mRNA in each of the four chaperone purifications (see Methods section for details). For each cDNA, real-time qPCRs were performed in triplicates. A highly reproducible data set was obtained in an independent series of chaperone purifications. (b) The N-terminal residues of Rpl10 are sufficient to target Sqt1 to the nascent Rpl10(1–20)-yEGFP fusion protein. […] The Sqt1-TAP purifications were assessed for their content of the RPL3, RPL10 and yEGFP (GFP) mRNAs by real-time qRT–PCR. The data from one representative experiment are expressed as the fold enrichment relative to the RPL3 mRNA. […]

Sqt1-TAP [2] = assay: in vivo co-purification (TAP) with Sqt1-TAP; format: binding, S. cerevisiae; details: CUP1 promoter, 30 min with 500 µM copper sulfate
Protocol: (§1) Cells expressing Sqt1-TAP and NTAP-Rrb1 were grown at 30 °C in 4 l yeast extract peptone dextrose (YPD) medium to an optical density (OD600) of 2. Cell extracts were obtained by glass bead lysis with a Pulverisette (Fritsch). TAPs were performed in a buffer containing 50 mM Tris-HCl (pH 7.5), 100 mM NaCl, 1.5 mM MgCl2, 5% glycerol and 0.1% NP-40 as described. The EGTA eluates were precipitated by the addition of TCA to a final concentration of 10% and, after an acetone wash, dissolved in 80 μl of 3 × SDS sample buffer. […]
(§2) lanes 3 and 4) from cells where expression of the yEGFP control protein (lanes 1 and 3) or the Rpl10(1-20)-yEGFP (lane 2) and Rpl3(1-23)-yEGFP (lane 4) fusion proteins has been induced from the CUP1 promoter for 30 min with 500 µM copper sulfate. Final EGTA eluates were analyzed by SDS-PAGE and Coomassie staining (top) or by Western blotting using anti-CBP, anti-Flag, anti-GFP, anti-Rpl10, and anti-Rpl3 antibodies (bottom). Total cell extracts (input) were analyzed by Western blotting using anti-proteinA, anti-GFP, and anti-Adh1 (loading control) antibodies. […]
(§3) Final EGTA eluates were analyzed by SDS-PAGE and Coomassie staining (top) or by Western blotting using anti-CBP, anti-Flag, anti-HA, anti-Rpl10, and anti-Rpl3 antibodies (bottom). […] Total cell extracts (input) were analyzed by Western blotting using anti-proteinA, anti-HA, and anti-Adh1 (loading control) antibodies. […]

yeast strain YDK11-5A = assay: growth assay, yEGFP fusion expression and chaperone overexpression; format: cell-based, S. cerevisiae; details: chaperones from GAL1-10 promoter, SGal-Leu-Trp plates, 30 °C
Text: Supplementary Figure 3 The N-terminal residues of Rpl10 and Rpl3 are sufficient and required for the interaction with Sqt1 and Rrb1, respectively. (a) The negative growth effect associated with L10-N- and L3-N-yEGFP expression is suppressed by overexpression of Sqt1 and Rrb1, respectively. The wild-type strain YDK11-5A was co-transformed with plasmids expressing yEGFP, Rpl10(1-20)-yEGFP or Rpl3(1-23)-yEGFP from the cognate RPL10 or RPL3 promoter, respectively, and empty vector or plasmids expressing Sqt1 or Rrb1 from the inducible GAL1-10 promoter. Transformants were first selected and then restreaked on SGal-Leu-Trp plates. Cells were spotted in 10-fold serial dilution steps onto SC-Leu-Trp (Glucose, Glu) and SGal-Leu-Trp (Galactose, Gal) plates, which were incubated for 3 d or 4 d at 30 °C, respectively. (b) The N-terminal residues of Rpl10 and Rpl3 are sufficient to mediate interaction with their chaperones in vivo. Tandem-affinity purification of C-terminally TAP-tagged Sqt1 (Sqt1-TAP, lanes 1 and 2) and N-terminally TAP-tagged Rrb1 (NTAP-Rrb1, […]
(1 picture or pasted object on this page, not shown here)

NTAP-Rrb1 [3] = assay: co-translational capturing of yEGFP fusion by qRT-PCR, NTAP-Rrb1 purification; format: binding, S. cerevisiae; details: vs yEGFP control mRNA; expressed 10 min from copper-inducible promoter, then cycloheximide
Protocol: (§4) Cells expressing Sqt1-TAP, NTAP-Rrb1, Syo1-FTpA and Yar1-TAP were grown at 30 °C in 400 ml YPD medium to an optical density (OD600) of 0.8, then cycloheximide was added to a final concentration of 0.2 mg ml^−1 and the flasks were kept, with intermittent vigorous shaking, on ice for 5 min. Cells were harvested by centrifugation for 5 min at 4 °C at 4,000 r.p.m., washed once with 20 ml of ice-cold lysis buffer (100 mM NaCl, 50 mM Tris-HCl (pH 7.5), 1.5 mM MgCl2, 0.1% NP-40 and 5% glycerol) containing 1 mM PMSF and 0.2 mg ml^−1 cycloheximide (lysis buffer-PC) and resuspended in 2 ml of lysis buffer-PC. Equal volumes of the resuspended cells were transferred into two 2.2 ml Eppendorf tubes, briefly centrifuged and resuspended in 600 μl of ice-cold lysis buffer-PC. To prevent RNA degradation, 4 μl of RiboLock (40 U μl^−1; Fermentas) was added. Then glass beads, corresponding to 1/3 of the lysis buffer volume, were added and the tubes were vigorously vortexed for 10 × 30 s with 30-s intervals on ice. Cell extracts were transferred to a new tube and, to maximize the yield, 400 μl of ice-cold lysis buffer-PC was used to rinse the glass beads. […]
(§5) For RNA isolation from the TEV eluate aliquot (∼450 μl), the TEV eluate was adjusted to 10 mM EDTA (pH 8.0) and 0.5% SDS. […] RNA concentrations (A260) were determined using a NanoDrop 1000 spectrophotometer (Thermo Scientific). […]

NTAP-Rrb1 [4] = assay: in vivo co-purification (TAP) with NTAP-Rrb1; format: binding, S. cerevisiae; details: CUP1 promoter, 30 min with 500 µM copper sulfate
Protocol: as §1, §2, §3

RPS3 mRNA = assay: co-translational capturing by qRT-PCR, RPS3 mRNA; format: binding, S. cerevisiae; details: Yar1-TAP purification, cycloheximide-treated cells; one representative experiment, qPCR triplicates
Protocol: as §4, §5

RPL5 mRNA = assay: co-translational capturing by qRT-PCR, RPL5 mRNA; format: binding, S. cerevisiae; details: Syo1-FTpA purification, cycloheximide-treated cells; one representative experiment, qPCR triplicates
Protocol: as §4, §5

L10-N (amino acids 1–20) yEGFP (MARRPARCYRYQKNKPYPKS; also: fused to yEGFP; UniProt P41805 1-20, looked up, fragment)
enrichment of fusion mRNA in Sqt1-TAP purification (Sqt1-TAP [1]): clearly enriched compared with the yEGFP control mRNA | in vivo co-purification with the Sqt1-TAP bait (Sqt1-TAP [2]): specifically co-purified in vivo | growth defect associated with expression, upon overexpression of Sqt1 or Rrb1, respectively (yeast strain YDK11-5A): efficiently suppressed

L3-N (amino acids 1–23) yEGFP (MSHRKYEAPRHGHLGFLPRKRAA; also: fused to yEGFP, end not given here; UniProt P14126 1-23, looked up, fragment)
enrichment of fusion mRNA in NTAP-Rrb1 purification (NTAP-Rrb1 [3]): clearly enriched compared with the yEGFP control mRNA | in vivo co-purification with the NTAP-Rrb1 bait (NTAP-Rrb1 [4]): specifically co-purified in vivo | growth defect associated with expression, upon overexpression of Sqt1 or Rrb1, respectively (yeast strain YDK11-5A): efficiently suppressed

B1: Yar1: ankyrin-repeat protein, chaperone of Rps3 (protein)
chain: MGLHSEPLDQEDQDTIILDARAGDLDSLKDIFTTLVSPELLSTCKESESDSTALHMAAANGHIETVRYILETVSRANSAEDLKAFVNEVNKTGNTALHWASLNGKLDVVKLLCDEYEADPFIRNKFGHDAIFEAENSGKEEVETYFLKKYDVEPEDDEEDTQTEGKNSVQITKGTEIEQVTKEATEALREETEKLNINKD
modifications: left off: TAP, end not stated, kept
notes: ankyrin-repeat protein, chaperone of Rps3
enrichment of the specific ribosomal protein mRNA (RPS3) (RPS3 mRNA): roughly 100 -fold

B2: Syo1: transport adaptor, chaperone of Rpl5 (and Rpl11) (protein)
chain: MGRSKKRSRASSSRLNPLRKAGSNDNNKDTNVVNKKLQPLLQNLSSVVPNDRSIALSSISVLCEDAHMRQLLLKEKLVPIILNKLLNDSNSDIVVESFGLLRNLSLEEGYDVSIYLWRSDIWTSITSNFGRIVESLSALQAAEQQPQLKPAGKSKIESKRLLFDFADNLLSLVVALSNGSDDILNEILTESKINEIFQVISQLLKYGVEKLPINLFNTTLDLIYDLSSESFEFIDHVSNNELLSQFLNGLSPALHPQANELTKVLIEGIHCQFLDMKITYDQCNKMIHSVCHSINNIDPVQLVNDINNPVEIGPATSKDESSKVITKIKDYNAKRNESMIKLQSIEIAIDLITAIIEIVASKYESPESQEVAIPEELINTLTNFLPHVFMILKDTFTSRILIGWNNLIWLFVSLSLTELSGELLTTLWSYVTQLDSQDDLSIKIGRMGCIWALLKLIFPDGAFESENRALINVQMLNNSGFARGIIEEFQNNNDLELQQKCINVLSTYAMIQGQIDANKEIGQFFIQTLTQLNVRPEILIEMTNSLFQIYGDASYDYNEPIFVRGGFLSILKDQVVPNLRQQFKMVDKNKNPELKERCHDCFTTLDSFIHYKMNENSTNQ
modifications: left off: FTpA, end not stated, kept
enrichment of the specific ribosomal protein mRNA (RPL5) (RPL5 mRNA): roughly 100 -fold
